According to patent US10857113B2, “Bezafibrate for the treatment of cancer” (Cipla Limited, priority 2016, dated 2020):
Where two headings read alike, the source gives them in different places.

Legend:
RXF 1220L = assay: In vitro 3D clonogenic assay; type: cell-based; settings: Homo sapiens, 3D model, colony formation, 8 to 13 days continuous exposure
Method: (§1) Cell lines were routinely passaged one or twice weekly. All cells were grown at 37° C. in a humidified atmosphere with 5% CO2 in RPMI 1640 medium (Biochrom) supplemented with 10% (v/v) fetal calf serum and 0.1 mg/mL gentamicin. The percentage of viable cells was determined in a Neubauer-hemocytometer using trypan blue exclusion.
(§2) Tumor xenografts (patient-derived, as well as cell line-derived xenografts) were passaged as subcutaneous xenografts in NMRI nu/nu mice. At a tumor volume of 400-1,000 mm^3 tumor-bearing mice were sacrificed and tumors were collected under sterile conditions without delay according to the relevant Oncotest SOPs and the relevant animal welfare guidelines published by the FELASA and the GV-SOLAS. Tumors were mechanically disaggregated and subsequently incubated with an enzyme cocktail consisting of collagenase type IV (41 U/mL), DNase I (125 U/mL), hyaluronidase type III (100 U/mL), and dispase II (1.0 U/mL) in RPMI 1640 medium (Life Technologies) at 37° C. for 60-120 minutes. Cells were passed through sieves of 100 μm and 40 μm mesh size (Cell Strainer, BD Falcon™), and washed with RPMI 1640 medium. The percentage of viable cells was determined in a Neubauer-hemocytometer using trypan blue exclusion. Aliquots of the cells were frozen down, and stored in liquid nitrogen. On each day of an experiment, a frozen aliquot of tumor cells was thawed and used for preparation of assay plates.
(§3) The clonogenic assay was carried out in a 96 well plate format using ultra low attachment plates. For each test, cells were prepared as described above and assay plates were prepared as follows: each test well contained a layer of semi-solid medium with tumor cells (50 and a second layer of medium supernatant with or without test compound (100 The cell layer consisted of 2.5·10^3 to 1·10^4 tumor cells per well, which were seeded in 50 μL/well cell culture medium (IMDM, supplemented with 20% (v/v) fetal calf serum, 0.01% (w/v) gentamicin, and 0.4% (w/v) agar). After 24 hours the test compounds were added after serial dilution in cell culture medium, and left on the cells for the duration of the experiment (continuous exposure, 100 μl drug overlay). Every plate included six untreated control wells and drug-treated groups in duplicate at 9 concentrations. Cultures were incubated at 37° C. and 7.5% CO2 in a humidified atmosphere for 8 to 13 days and monitored closely for colony growth using an inverted microscope. Within this period, ex vivo tumor growth led to the formation of colonies with a diameter of >50 μm. At the time of maximum colony formation, counts were performed with an automatic image analysis system (CellInsight NXT, Thermo Scientific). 48 hours prior to evaluation, vital colonies were stained with a sterile aqueous solution of 2-(4-iodophenyl)-3-(4-nitrophenyl)-5-phenyltetrazolium chloride (1 mg/ml, 100 μl/well).

RXF 1183L = assay: In vitro 3D clonogenic assay; type: cell-based; settings: Homo sapiens, 3D model, colony formation, 8 to 13 days continuous exposure
Method: as §1, §2, §3

RXF 393L = assay: In vitro 3D clonogenic assay; type: cell-based; settings: Homo sapiens, 3D model, colony formation, 8 to 13 days continuous exposure
Method: as §1, §2, §3

SN12C = assay: In vitro 3D clonogenic assay; type: cell-based; settings: Homo sapiens, 3D model, colony formation, 8 to 13 days continuous exposure
Method: as §1, §2, §3

A-498 = assay: In vitro 3D clonogenic assay; type: cell-based; settings: Homo sapiens, A498, 3D model, colony formation, 8 to 13 days continuous exposure
Method: as §1, §2, §3

Caki-1 = assay: In vitro 3D clonogenic assay; type: cell-based; settings: Homo sapiens, 3D model, colony formation, 8 to 13 days continuous exposure
Method: as §1, §2, §3

RXF 486L = assay: In vitro 3D clonogenic assay; type: cell-based; settings: Homo sapiens, 3D model, colony formation, 8 to 13 days continuous exposure
Method: as §1, §2, §3

ACHN = assay: In vitro 3D clonogenic assay; type: cell-based; settings: Homo sapiens, 3D model, colony formation, 8 to 13 days continuous exposure
Method: as §1, §2, §3

786-O = assay: In vitro 3D clonogenic assay; type: cell-based; settings: Homo sapiens, 786-0, 3D model, colony formation, 8 to 13 days continuous exposure
Method: as §1, §2, §3

RXF 1781L = assay: In vitro 3D clonogenic assay; type: cell-based; settings: Homo sapiens, 3D model, colony formation, 8 to 13 days continuous exposure
Method: as §1, §2, §3

[1] = tested on: human tumor cell models for RCC; assay: In vitro 2D assay, all cell lines tested; type: cell-based; settings: 2D model; for IC50: Homo sapiens
Source text: Cell lines RXF 1183L, RXF 1220L, RXF 1781L, RXF 393L and RXF 486L were established at Oncotest from the corresponding human patient-derived xenograft. The cell lines 786-O, A-498, Caki-1 and SN12C were purchased from NCI (National Cancer Institute, Bethesda, Md., USA). ACHN was purchased from ECACC (European Collection of Cell Cultures, Salisbury, UK). Authenticity of cell lines was confirmed at the DSMZ by STR (short tandem repeat) analysis, a PCR based DNA-fingerprinting methodology.
Cell lines were routinely passaged once or twice weekly and maintained in culture for up to 20 passages. All cells were grown at 37° C. in a humidified atmosphere with 5% CO2 in RPMI 1640 medium (25 mM HEPES, with L-glutamine, # FG1385, Biochrom, Berlin, Germany) supplemented with 10% (v/v) fetal calf serum (Sigma, Taufkirchen, Germany) and 0.1 mg/mL gentamicin (Life Technologies, Karlsruhe, Germany).
Bezafibrate was dissolved at a concentration of 100 mM in 100% Methanol and next 1:5 diluted with cell culture media (20 mM, 20% Methanol). Starting with this solution, serial dilutions (1:1.6) were prepared with cell culture medium. Next, 150 μL of the serial dilutions were transferred to the assay plates upon removing the cell culture media of each well (complete change of medium on assay plates). […] The maximum methanol concentrations were 6% and 10%. No precipitation was observed.
Cells were harvested from exponential phase cultures, counted and plated in 96-well flat-bottom microtiter plates at a cell density of 4,000-12,000 cells/well depending on the cell line's growth rate. After a 24 hour recovery period to allow the cells to resume exponential growth, test compounds were added. Compounds were applied at 8 to 10 concentrations in duplicate and treatment continued for 96 hour. After 96 hour treatment of cells, 20 μL/well CellTiter-Blue® reagent was added. Following an incubation period of up to four hours, fluorescence (FU) was measured by using the Enspire Multimode Plate Reader (excitation λ=531 nm, emission λ=615 nm).
For calculations, the mean values of duplicate/quadruplicate (untreated control) data were used. Sigmoidal concentration-response curves were fitted to the data points (T/C values) obtained for each cell line using 4 parameter non-linear curve fit.

[2] = background statement; cited from earlier work
A498 cells = assay: In vivo animal efficacy study, subcutaneous tumor fragment xenograft; set-up: species or system female athymic nude mice; settings: sunitinib 20 mg/kg, bezafibrate 150 mg/kg, p.o. q.d. × 21
Method: Healthy 10 female athymic nude mice were recruited for the donor cell inoculation. Animals were subcutaneously injected at flank region with 10 million A498 cells suspended in 200 μl of media and matrigel. Animals were monitored for solid tumor growth. […] Tumors were fragmented in to ˜30 mg size. […] [table] The tumor sizes were measured weekly twice from the date of tumor appearance till the end of the experiment. Tumor size was measured by digital vernier caliper (MITUTOYO) by measuring length (L=longest axis) and width (W=shortest axis). Tumor Volume (V) was calculated using formula: […] Mean tumor volume and % tumor growth inhibition (% TGI) were then calculated (SEM=standard error of mean).

Which IC50 (RXF 1220L; read-out: Absolute IC50) does the source give for `CC(C)(Oc1ccc(CCNC(=O)c2ccc(Cl)cc2)cc1)C(=O)O` [Bezafibrate] here?
The IC50 was 1160 µM.

And the IC50 (RXF 1220L; read-out: Relative IC50)?
Its IC50 is 1230 µM.

What about the IC50 (RXF 1183L; read-out: Absolute IC50) of the same compound?
The IC50 was 609 µM.

And the IC50 (RXF 1183L; read-out: Relative IC50)?
The IC50 was 712 µM.

What about the IC50 (RXF 393L; read-out: Absolute IC50) of the same compound?
Its IC50 is 1270 µM.

What about the IC50 (RXF 393L; read-out: Relative IC50) of the same compound?
Its IC50 is 1280 µM.

What about the IC50 (SN12C; read-out: Absolute IC50) of the same compound?
The IC50 was 463 µM.

What about the IC50 (SN12C; read-out: Relative IC50) of the same compound?
Its IC50 is 463 µM.

What about the IC50 (A-498; read-out: Absolute IC50) of the same compound?
The IC50 was 764 µM.

What about the IC50 (A-498; read-out: Relative IC50) of the same compound?
The IC50 was 773 µM.

And the IC50 (Caki-1; read-out: Absolute IC50)?
Its IC50 is 1290 µM.

And the IC50 (Caki-1; read-out: Relative IC50)?
Its IC50 is 1290 µM.

What about the IC50 (RXF 486L; read-out: Absolute IC50) of the same compound?
Its IC50 is 993 µM.

What about the IC50 (RXF 486L; read-out: Relative IC50) of the same compound?
The IC50 was 962 µM.

And the IC50 (ACHN; read-out: Absolute IC50)?
The IC50 was 1010 µM.

What about the IC50 (ACHN; read-out: Relative IC50) of the same compound?
The IC50 was 1060 µM.

What about the IC50 (786-O; read-out: Absolute IC50) of the same compound?
Its IC50 is 1340 µM.

And the IC50 (786-O; read-out: Relative IC50)?
Its IC50 is 1470 µM.

What about the IC50 (RXF 1781L; read-out: Absolute IC50) of the same compound?
The IC50 was 1030 µM.

And the IC50 (RXF 1781L; read-out: Relative IC50)?
The IC50 was 1100 µM.

And the “IC50 values, overall anti-cancer activity” value ([1]; overall statement)?
Its value is “low mM range”.

What about the IC50 ([1]; geometric mean over 10 cell lines, second run 381 to 10,240 μM, read-out: Geometric mean absolute IC50) of the same compound?
The IC50 was 1220 µM.

What about the IC50 ([1]; geometric mean over 10 cell lines, read-out: Geometric mean relative IC50) of the same compound?
Its IC50 is 1560 µM.

And the IC50 ([1]; first run 93 to 4,000 μM, read-out: Geometric mean absolute IC50)?
Its IC50 is 1780 µM.

And the “Absorption following oral administration” value [2]?
The value was “well absorbed”.

What about the “Tumor Growth Inhibition” value (A498 cells; Day 1) of the same compound?
The value was 0.44%.

And the “Tumor Volume, Mean” value (A498 cells; Day 1)?
The value was 146.92 mm^3.

And the “Tumor Volume, Mean” value (A498 cells; Day 6)?
Its value is 198.50 mm^3.

And the “Tumor Growth Inhibition” value (A498 cells; Day 9)?
Its value is 21.70%.

What about the “Tumor Volume, Mean” value (A498 cells; Day 9) of the same compound?
Its value is 363.14 mm^3.

And the “Tumor Growth Inhibition” value (A498 cells; Day 13)?
The value was 24.92%.
